Laboratory results as given in patent US20130023504A1, “Modulation of Prostaglandin/Cyclooxygenase Metabolic Pathways” (HUNTER-FLEMING LIMITED, priority 2006, published 2013).
Values joined by “and” are separate entries in the source; they are usually repeats but may differ in a detail not shown here. Equal values may be shown once. Marks after values point to notes of the source that are not given here.

Experiments:
PC-12 cells = test: Ischaemia (oxygen-glucose deprivation)-induced cell death in NGF-differentiated PC-12 cells, Trypan Blue exclusion; assay type: cell-based; settings: vs. ischemia alone
Procedure: PC-12 cells were maintained on flasks coated with Collagen typel in PC-12 media with the following composition; RPMI 1640 without L-glutamine with 2 mM L-glutamine, 10 mM HEPES, 1 mM Sodium Pyruvate, additional glucose to give a final concentration of 4.5 g/L (RPMI normally has 2 g/L), 10% heat inactivated horse serum, 5% foetal calf serum and 50 units of penicillin/streptomycin. Media was changed every 2 days.
Confluent cultures of PC-12 cells were differentiated by culturing for 7 days in PC-12 medium without serum but with 50 ng/mlNGF (PC-12 NGF media). The cells were harvested, washed, counted and 1×10^5 PC-12 cells/well were plated overnight in a micro titre plate in glucose free PC-12 NGF medium. The medium was then changed to glucose-free PC-12 NGF medium containing the compounds to be tested and the plates left under normoxic conditions for 30 minutes.
During this stage, the media and test substances for the anoxic exposure were placed in a chamber and de-oxygenated with 95% N2/5% CO2. The media in the plates was changed with the de-oxygenated media and the plates then placed in an anaerobic chamber gassed with 95% N2 5% CO2 for 10 minutes before being sealed and incubated at 37° C. overnight (18 hours). For normoxia controls, the cells were treated identically to ischemic treatments except that all incubations were in 5% CO2/95% air.
Viability was determined using Trypan Blue exclusion.

[1] = system: collagen-induced arthritis; test: Collagen-induced arthritis (CII/CFA), histopathology, clinical score, knee homogenate prostaglandins; assay type: in vivo, mouse
rat sensory neurones = test: Cisplatin-induced neuronal cell death, number of cell bodies per field in dorsal root ganglia sensory neurones (anti MAP-2); assay type: cell-based; settings: for % Control without cisplatin (cell bodies) / number of cell bodies per field, Average: cisplatin 3 μg/ml
Procedure: Primary cultures of dissociated dorsal root ganglia sensory neurones were incubated with 3 μg/ml cisplatin, with and without 7β-OH EPIA for 48 hours and 72 hours and the following parameters were evaluated:
neurone cell bodies stained with an anti MAP 2 antibody (microtubule associated protein 2)
Rat sensory neurones were prepared according to the method described by Hall et al 1997 [Hall et al. (J. Neurosci. 1997 Apr. 15; 17(8); 2775-84]. Briefly, a female rat (15 days gestation) was killed by cervical dislocation (Rats Wistar; Janvier, Le Genest-St-lsle, France) and the foetuses removed from the uterus. Their spinal cords with the dorsal root ganglia (DRG) were removed and placed in ice-cold medium of Leibovitz (L15, Fisher 11415-049) containing Penicillin 50 UI/ml-Streptomycin 50 μg/ml (PS, 1%) and bovine serum albuminutes (BSA 1%, Sigma A6003). The DRG were recovered and dissociated by trypsinisation for 20 minutes at 37° C. (trypsin EDTA 10×, 10%, Fisher 15400054) diluted in PBS without calcium and magnesium (Fisher 2007-03). The reaction was stopped by addition of Dulbecco modified Eagle medium (DMEM, Fisher 21969-035) containing DNase I grade II (0.1 mg/ml Roche diagnostic 104159) and foetal bovine serum (FBS 10%, Fisher 10270-098). The cell suspension was triturated with a 10 ml pipette and centrifuged at 350×g for 10 minutes at room temperature. The pellet of dissociated cells was then resuspended in defined culture medium.
Viable cells were counted in a Neubauer cytometer using the trypan blue exclusion test (Sigma) and seeded at a density of 30 000 cells/well in 96 well-plates (Nunc). Wells were pre-coated with poly-L-lysine (10 μg/ml, Sigma P2636) in ultra pure sterile water (Merck Eurolab 60759.01).
Cells were allowed to adhere for 2 h and maintained in a humidified incubator at 37° C. in 5% CO2/95% air atmosphere.
After 5 days of culture, the culture medium was changed into a defined culture medium following the different conditions described below:
Test compound 7β-OH EPIA (1 nM, 10 nM and 100 nM)+cisplatin (3 μg/ml)
Reference compound NGF (10 ng/ml)+cisplatin (3 μg/ml)
Six wells per condition were carried out to assess neuronal survival. After 48 hours and 72 hours of incubation, the neuronal cells were fixed for 5 minutes in an ethanol/acetic acid solution (95%/5%) at −20° C. and rinsed 3 times in PBS.
Cell bodies of sensory neurones were labelled by monoclonal anti MAP-2 antibody (Sigma M4403) and the neurite of sensory neurones were labelled by monoclonal β-Tubulin antibody (Sigma T8660). These antibodies were diluted at 1:400 in incubation solution (PBS with 5% of FCS and 0.1% of saponin, Sigma S-7900). These antibodies specifically label neurone cell bodies and neuritis, respectively.
After 2 hours of incubation, the cells were washed in PBS and incubated with Alexa Fluor 488 goat anti mouse IgG (Molecular Probes A11001) diluted at 1:300 in incubation solution to reveal the MAP-2 and the β-Tubulin antibodies. Cell nuclei were stained with a fluorescent marker (Hoechst staining solution, SIGMA H6024, 1 μg/ml in incubation solution during 1 hour).
For each condition, 2 pictures per well (12 pictures per condition) were taken using In Cell Analyzer 1000 (Amersham Biosciences) controlled by the computer software In Cell Analyzer 1000 3.2. For the MAP-2 labelling, the magnification was ×10, for the β-Tubulin labelling, the magnification was ×20. For each labelling, all the images were taken in the same conditions.
Analysis of the number of cell bodies labelled with anti-MAP-2 antibodies, and total length of neurites labelled with anti β-Tubulin antibodies, were carried out using In Cell Analyzer 1000 3.2.Workstation software. The results were expressed in percentage compared to the vehicle. The comparisons of each group were carried out using the unpaired T test.

SMILES: CC12CCC3C(C1CCC2=O)[C@@H](O)C[C@H]1C[C@@H](O)CCC31C (stereo partly drawn) [Compound 7β-OH-EPIA, 7β-hydroxy-EPIAndrosterone]
- decrease in cell death (PC-12 cells; 1 μM): 26% and 25%
- decrease in cell death (PC-12 cells; 10 μM): 53% and 50%
- 15d-PGJ2 in knee homogenates ([1]; 0.1 μg/kg day, D 20-50, Day 50): 78.96 ± 22.18 pg/mL
- Clinical Score (joint swelling) ([1]; 0.1 μg/kg day, D 20-50, Day 50): 3.10 ± 2.96
- PGE2/15d-PGJ2 ([1]; 0.1 μg/kg day, D 20-50, Day 50): 1.21
- PGE2 in knee homogenates ([1]; 0.1 μg/kg day, D 20-50, Day 50): 95.61 ± 34.65 pg/mL
- Histopathology Score (both paws on Day 50) ([1]; 1.0 μg/kg s.c. daily, treatment from Day 20-50): 0.60
- animals completely clear of histopathological change in the paw joints ([1]; 10.0 μg/kg, treatment day 0 to day 30): 9 out of 10
- Histopathology Score (both paws on Day 50) ([1]; 10.0 μg/kg, treatment from Day 0-30): 0.2*
- Histopathology Score (both paws on Day 50) ([1]; 10.0 μg/kg, treatment from Day 20-50): 0.44
- Histopathology Score (both paws on Day 50) ([1]; 100.0 μg/kg, treatment from Day 20-50): 0.85
- reduction of cisplatin-induced cell death (rat sensory neurones; 1 nM, 48 hours): 53.1%
- reduction of cisplatin-induced cell death (rat sensory neurones; 1 nM, 72 hours): 93%
- % Control without cisplatin (cell bodies) (rat sensory neurones; 1 nM, 48 hours): 85%
- number of cell bodies per field, Average (rat sensory neurones; 1 nM, 48 hours): 51 and 51.42
- % Control without cisplatin (cell bodies) (rat sensory neurones; 1 nM, 72 hours): 98%
- number of cell bodies per field, Average (rat sensory neurones; 1 nM, 72 hours): 52 and 52.42
- reduction of cisplatin-induced cell death (rat sensory neurones; 10 nM, 48 hours): 18.7%
- reduction of cisplatin-induced cell death (rat sensory neurones; 10 nM, 72 hours): 104%
- % Control without cisplatin (cell bodies) (rat sensory neurones; 10 nM, 48 hours): 75%
- number of cell bodies per field, Average (rat sensory neurones; 10 nM, 48 hours): 45 and 45.50
- % Control without cisplatin (cell bodies) (rat sensory neurones; 10 nM, 72 hours): 1.2%
- number of cell bodies per field, Average (rat sensory neurones; 10 nM, 72 hours): 55 and 54.58
- reduction of cisplatin-induced cell death (rat sensory neurones; 100 nM, 48 hours): 43.8%
- reduction of cisplatin-induced cell death (rat sensory neurones; 100 nM, 72 hours): 93%
- % Control without cisplatin (cell bodies) (rat sensory neurones; 100 nM, 48 hours): 82%
- number of cell bodies per field, Average (rat sensory neurones; 100 nM, 48 hours): 50 and 49.58
- % Control without cisplatin (cell bodies) (rat sensory neurones; 100 nM, 72 hours): 97%
- number of cell bodies per field, Average (rat sensory neurones; 100 nM, 72 hours): 52 and 52.25
